Test results from paper PMC8196787, “Design and Pharmacodynamics of Recombinant Fungus Defensin NZL with Improved Activity against Staphylococcus hyicus In Vitro and In Vivo” (International Journal of Molecular Sciences, 2021).
Values after ≈ are worked out from the molar mass of the structure shown. Positions of bridges follow the written chain, without caps; N, C: chain ends. Residues, ends and D or L forms follow the SMILES beside them.

Key:
[1] = system: isolated S. hyicus (n = 207); details: n = 207 isolates, Japan; cited from earlier work
Excerpt: Staphylococcus hyicus is one of the opportunistic and commensal pathogens which can cause acute infections to animals and humans. It was reported that exfoliative toxins-producing S. hyicus is primarily known as the most common causative agent of exudative epidermitis in pigs, which occurs typically as an acute skin lesions characterized by sebaceous exudation, exfoliation, and vesicle formation. This disease with prominent morbidity and mortality occurs worldwide, resulting in considerable economic losses in the swine industry. To date, piglets infected with S. hyicus are fr ...

S. aureus ATCC 43300 = assay: microbe, parasite or virus in culture; format: cell-based; details: S. aureus ATCC 43300; microbroth dilution, MHB, 1 × 10^5 CFU/mL, 37 °C, 16–20 h, peptides 1–256 μg/mL, triplicate
Protocol: (§1) The microbroth dilution method was used to evaluate the MIC values of new derivative peptides. […] The MIC value was defined as the lowest concentration where no visible bacteria growth occurred after overnight incubation. CRO was used as the positive control. All assays were conducted in triplicate.

S. hyicus ACCC 61734 = assay: microbe, parasite or virus in culture; format: cell-based; details: S. hyicus ACCC 61734 (clinical strain); microbroth dilution, MHB, 37 °C, 16–20 h, triplicate
Protocol: as §1

In the case of `O=C(N[C@H](CO)[C@H](O)c1ccc([N+](=O)[O-])cc1)C(Cl)Cl` [chloramphenicol], the “Isolated S. hyicus resistant to the drug” value [1] is listed as 24.2%.
In the case of `CC[C@H]1OC(=O)[C@H](C)[C@@H](O[C@H]2C[C@@](C)(OC)[C@@H](O)[C@H](C)O2)[C@H](C)[C@@H](O[C@@H]2O[C@H](C)C[C@H](N(C)C)[C@H]2O)[C@](C)(O)C[C@@H](C)C(=O)[C@H](C)[C@@H](O)[C@]1(C)O` [erythromycin], the “Isolated S. hyicus resistant to the drug” value [1] is given as 56%.
For penicillin, the “Isolated S. hyicus resistant to the drug” value [1] is given as 76.8%.
For `CC[C@H](C)[C@@H]1NC(=O)[C@H](CO)NC(=O)[C@H](CCCCN)NC(=O)[C@@H]2CSSC[C@@H](C(=O)N[C@@H](Cc3ccc(O)cc3)C(=O)O)NC(=O)[C@H](CCCCN)NC(=O)[C@@H]3CSSC[C@H](NC(=O)[C@H](CCCCN)NC(=O)[C@H](CC(C)C)NC(=O)[C@H](CC(=O)O)NC(=O)[C@H](CC(=O)O)NC(=O)[C@H](CCC(=O)O)NC(=O)[C@H](CCC(N)=O)NC(=O)[C@H](Cc4c[nH]c5ccccc45)NC(=O)[C@@H]4CCCN4C(=O)CNC(=O)[C@H](CC(N)=O)NC(=O)[C@@H](NC(=O)CNC(=O)[C@H](Cc4ccccc4)NC(=O)CN)CSSC[C@H](NC(=O)[C@H](Cc4ccc(O)cc4)NC(=O)CNC(=O)CNC(=O)[C@H](CCCCN)NC(=O)[C@H](Cc4ccc(O)cc4)NC(=O)CNC(=O)[C@H](CCCCN)NC1=O)C(=O)N[C@@H](C)C(=O)N[C@@H](CO)C(=O)N[C@@H](C)C(=O)NCC(=O)N[C@@H](Cc1ccccc1)C(=O)N[C@@H](C(C)C)C(=O)N3)C(=O)N[C@@H](Cc1c[nH]cn1)C(=O)N[C@@H](CC(N)=O)C(=O)N[C@@H](Cc1c[nH]cn1)C(=O)N2` [Peptide 9] (H-GFGCNGPWQEDDLKCHNHCKSIKGYKGGYCASAGFVCKCY-OH; disulfide 4-30, 15-37, 19-39; N-terminus and C-terminus assumed), the MIC (S. aureus ATCC 43300) was 4 µg/mL (≈ 0.915 µM) and the MIC (S. hyicus ACCC 61734) was 8 µg/mL (≈ 1.83 µM).
For `NC[C@H]1O[C@H](O[C@H]2[C@H](O)[C@@H](O[C@H]3O[C@H](CO)[C@@H](O)[C@H](N)[C@H]3O)[C@H](N)C[C@@H]2N)[C@H](O)[C@@H](O)[C@@H]1O` [kanamycin], the “Isolated S. hyicus resistant to the drug” value [1] is listed as 19.8%.
For `CC1(C)S[C@@H]2[C@H](NC(=O)[C@H](N)c3ccccc3)C(=O)N2[C@H]1C(=O)O` [ampicillin], the “Isolated S. hyicus resistant to the drug” value [1] is listed as 76.8%.
For `C[C@H]1c2cccc(O)c2C(=O)C2=C(O)[C@]3(O)C(=O)C(C(N)=O)=C(O)[C@@H](N(C)C)[C@@H]3[C@@H](O)[C@@H]21` [doxycycline], the “Isolated S. hyicus resistant to the drug” value [1] is given as 1.4%.
Compound `CC[C@H](C)[C@@H]1NC(=O)[C@H](CO)NC(=O)[C@H](CCCCN)NC(=O)[C@@H]2CSSC[C@@H](C(=O)N[C@@H](Cc3ccc(O)cc3)C(=O)O)NC(=O)[C@H](CCCCN)NC(=O)[C@@H]3CSSC[C@H](NC(=O)[C@H](CCC(N)=O)NC(=O)[C@H](CC(C)C)NC(=O)[C@H](CC(=O)O)NC(=O)[C@H](CC(=O)O)NC(=O)[C@H](CCC(=O)O)NC(=O)[C@H](CO)NC(=O)[C@H](Cc4c[nH]c5ccccc45)NC(=O)[C@@H]4CCCN4C(=O)CNC(=O)[C@H](CC(N)=O)NC(=O)[C@@H](NC(=O)CNC(=O)[C@H](Cc4ccccc4)NC(=O)CN)CSSC[C@H](NC(=O)[C@H](Cc4ccc(O)cc4)NC(=O)CNC(=O)CNC(=O)[C@H](CCCCN)NC(=O)[C@H](Cc4ccc(O)cc4)NC(=O)CNC(=O)[C@H](CCCCN)NC1=O)C(=O)N[C@@H](C)C(=O)N[C@@H](CCCNC(=N)N)C(=O)NCC(=O)NCC(=O)N[C@@H](Cc1ccccc1)C(=O)N[C@@H](C(C)C)C(=O)N3)C(=O)N[C@@H](Cc1c[nH]cn1)C(=O)N[C@@H](CC(N)=O)C(=O)N[C@@H](Cc1c[nH]cn1)C(=O)N2` [Peptide 7] (H-GFGCNGPWSEDDLQCHNHCKSIKGYKGGYCARGGFVCKCY-OH; disulfide 4-30, 15-37, 19-39; N-terminus and C-terminus assumed) has an MIC (S. aureus ATCC 43300) of 2 µg/mL (≈ 0.456 µM) and an MIC (S. hyicus ACCC 61734) of 4 µg/mL (≈ 0.912 µM).
`CC[C@H](C)[C@@H]1NC(=O)[C@H](CO)NC(=O)[C@H](CCCCN)NC(=O)[C@@H]2CSSC[C@@H](C(=O)N[C@@H](Cc3ccc(O)cc3)C(=O)O)NC(=O)[C@H](CCCCN)NC(=O)[C@@H]3CSSC[C@H](NC(=O)[C@H](CCCNC(=N)N)NC(=O)[C@H]([C@@H](C)CC)NC(=O)[C@H](CC(=O)O)NC(=O)[C@H](CC(=O)O)NC(=O)[C@H](CCC(=O)O)NC(=O)[C@H](CO)NC(=O)[C@H](Cc4c[nH]c5ccccc45)NC(=O)[C@@H]4CCCN4C(=O)CNC(=O)[C@H](CC(N)=O)NC(=O)[C@@H](NC(=O)CNC(=O)[C@H](Cc4ccccc4)NC(=O)CN)CSSC[C@H](NC(=O)[C@H](Cc4ccc(O)cc4)NC(=O)CNC(=O)CNC(=O)[C@H](CCCCN)NC(=O)[C@H](Cc4ccc(O)cc4)NC(=O)CNC(=O)[C@H](CCCCN)NC1=O)C(=O)N[C@@H](C)C(=O)N[C@@H](CO)C(=O)N[C@@H](C)C(=O)NCC(=O)N[C@@H](Cc1ccccc1)C(=O)N[C@@H](C(C)C)C(=O)N3)C(=O)N[C@@H](Cc1c[nH]cn1)C(=O)N[C@@H](CC(N)=O)C(=O)N[C@@H](Cc1c[nH]cn1)C(=O)N2` [Peptide 8] (H-GFGCNGPWSEDDIRCHNHCKSIKGYKGGYCASAGFVCKCY-OH; disulfide 4-30, 15-37, 19-39; N-terminus and C-terminus assumed) showed an MIC (S. aureus ATCC 43300) of 64 µg/mL (≈ 14.7 µM) and an MIC (S. hyicus ACCC 61734) of 128 µg/mL (≈ 29.4 µM).
Work on `CC[C@H](C)[C@@H]1NC(=O)[C@H](CO)NC(=O)[C@H](CCCCN)NC(=O)[C@@H]2CSSC[C@@H](C(=O)N[C@@H](Cc3ccc(O)cc3)C(=O)O)NC(=O)[C@H](CCCCN)NC(=O)[C@@H]3CSSC[C@H](NC(=O)[C@H](CCC(N)=O)NC(=O)[C@H]([C@@H](C)CC)NC(=O)[C@H](CC(=O)O)NC(=O)[C@H](CC(=O)O)NC(=O)[C@H](CCC(=O)O)NC(=O)[C@H]([C@@H](C)O)NC(=O)[C@H](Cc4c[nH]c5ccccc45)NC(=O)[C@@H]4CCCN4C(=O)CNC(=O)[C@H](CC(N)=O)NC(=O)[C@@H](NC(=O)CNC(=O)[C@H](Cc4ccccc4)NC(=O)CN)CSSC[C@H](NC(=O)[C@H](Cc4ccc(O)cc4)NC(=O)CNC(=O)CNC(=O)[C@H](CCCCN)NC(=O)[C@H](Cc4ccc(O)cc4)NC(=O)CNC(=O)[C@H](CCCCN)NC1=O)C(=O)N[C@@H](C)C(=O)N[C@@H](CCCNC(=N)N)C(=O)NCC(=O)NCC(=O)N[C@@H](Cc1ccccc1)C(=O)N[C@@H](C(C)C)C(=O)N3)C(=O)N[C@@H](Cc1c[nH]cn1)C(=O)N[C@@H](CC(N)=O)C(=O)N[C@@H](Cc1c[nH]cn1)C(=O)N2` [Peptide 10] (H-GFGCNGPWTEDDIQCHNHCKSIKGYKGGYCARGGFVCKCY-OH; disulfide 4-30, 15-37, 19-39; N-terminus and C-terminus assumed) yielded an MIC (S. aureus ATCC 43300) greater than 128 µg/mL and an MIC (S. hyicus ACCC 61734) greater than 128 µg/mL.
